{"source": "patent US20240277846A1", "about": "“MAGNETIC BIOMOLECULE-METAL ION SELF-ASSEMBLED COMPLEX FOR TREATMENT” (priority 2023, published 2024)", "key": {"macrophages": {"system": "macrophages", "experiment": "Macrophage polarization (immunofluorescence Arg-1/iNOS, flow cytometry)", "format": "cell-based", "conditions": "immunofluorescence staining", "text": "FIG. 15 to FIG. 17 show experiments according to each of the treatment conditions in cells before experimenting in rats according to Experimental Example 2 below. As shown in a following table 6, the conditions were divided into the control group: PBS only based treatment, Fe-ATP based treatment, ATP only based treatment, FeCl2 based treatment, and Fe3O4 based treatment. FIG. 15 is the result of identifying disassembling of the Fe-ATP self-assembly. Referring to FIG. 15, under each treatment condition, an experiment result was identified via immunofluorescence staining of […] (M2 polarization marker), iNOS (M1 polarization marker), and Dapi. […] This was identified through flow cytometry."}, "stem cells": {"system": "stem cells", "experiment": "Osteogenic differentiation of stem cells (RUNX2, osteocalcin immunofluorescence, ALP staining)", "format": "cell-based", "text": "FIG. 27 and FIG. 28 show experiments according to each of treatment conditions in cells before experimenting in rabbits according to Experimental Example 3 below. As shown in a following table 7, the treatment conditions include treatment with only PBS as a control group, treatment with Fe-AMP, treatment with AMP only, treatment with a combination of adenosine and PO4 (Adenosine+PO4), treatment with Adenosine, treatment with PO4, treatment with FeCl2, and treatment with an osteogenic induction medium. In this regard, FeCl2 was disassembled into Fe^2+ and Cl—. Thus, the treatment with FeCl2 was added to compare the released Fe^2+ therefrom with the Fe^2+ released from the […]. […] The adenosine obtained via decomposition of the AMP released from the Fe-AMP self-assembly was similar to osteogenic differentiation medium, and was analyzed via actin and dapi-positive nuclei and ALP chemical staining along with immunofluorescence staining of RUNX2 and osteocalcin. […] In other words, the Fe-AMP self-assembly induces osteogenic differentiation of stem cells through adenosine signaling. This was identified via immunofluorescence staining of RUNX2 and osteocalcin along with actin, dapi-positive nuclei, and ALP chemical staining."}, "ROS": {"system": "ROS", "experiment": "IVIS L-012 ROS signal analysis in vivo", "design": "species or system mouse", "conditions": "2 hours after the injection", "experimental": "Luminescent probes L-012 (Wako Chemical, Korea) were dissolved in […] a thus prepared solution was maintained in a fresh state just before the experiment. In a 50 […] injection volume, 25 mg/kg thereof was administered subcutaneously to a back of a mouse. Chemiluminescence (CL) release assessment was started immediately after the injection of L-012 using indiGOTM software and IVIS (In vivo Imaging System, NightOWL II LB 983, BERTHOLD Technologies GmbH, Germany). To collect sufficient CL release data, the mouse was exposed thereto for 20 seconds each time. CL released from the mouse skin was recorded and visualized in real time, and then the CL released in an area of interest was quantified as total flux (photons/second)."}, "P2Y1": {"target": "T1, P2Y1 (Homo sapiens, UniProt P47900)", "T1 construct": "endogenous in cells", "T1 sequence (P47900 whole entry, species assumed)": "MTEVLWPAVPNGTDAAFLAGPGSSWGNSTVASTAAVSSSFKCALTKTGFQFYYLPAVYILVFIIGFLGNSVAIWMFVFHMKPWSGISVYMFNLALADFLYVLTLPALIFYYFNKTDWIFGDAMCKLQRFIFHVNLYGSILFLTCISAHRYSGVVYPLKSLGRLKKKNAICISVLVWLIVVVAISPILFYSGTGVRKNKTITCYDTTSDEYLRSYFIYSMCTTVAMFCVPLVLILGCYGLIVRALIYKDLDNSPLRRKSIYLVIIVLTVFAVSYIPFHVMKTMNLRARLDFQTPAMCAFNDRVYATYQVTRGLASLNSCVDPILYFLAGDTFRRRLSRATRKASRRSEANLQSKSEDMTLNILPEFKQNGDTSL", "experiment": "Western blotting of macrophage signaling, P2Y1", "format": "cell-based", "conditions": "low concentration", "text": "(§1) It was identified that the Fe-ATP self-assembly was disassembled into the ATP and the iron ion such that the ATP was released therefrom, and this enabled AIP-mediated anti-inflammatory polarization of macrophages."}, "P2X7": {"target": "T2, P2X7 (Homo sapiens, UniProt Q99572)", "T2 construct": "endogenous in cells", "T2 sequence (Q99572 1-595)": "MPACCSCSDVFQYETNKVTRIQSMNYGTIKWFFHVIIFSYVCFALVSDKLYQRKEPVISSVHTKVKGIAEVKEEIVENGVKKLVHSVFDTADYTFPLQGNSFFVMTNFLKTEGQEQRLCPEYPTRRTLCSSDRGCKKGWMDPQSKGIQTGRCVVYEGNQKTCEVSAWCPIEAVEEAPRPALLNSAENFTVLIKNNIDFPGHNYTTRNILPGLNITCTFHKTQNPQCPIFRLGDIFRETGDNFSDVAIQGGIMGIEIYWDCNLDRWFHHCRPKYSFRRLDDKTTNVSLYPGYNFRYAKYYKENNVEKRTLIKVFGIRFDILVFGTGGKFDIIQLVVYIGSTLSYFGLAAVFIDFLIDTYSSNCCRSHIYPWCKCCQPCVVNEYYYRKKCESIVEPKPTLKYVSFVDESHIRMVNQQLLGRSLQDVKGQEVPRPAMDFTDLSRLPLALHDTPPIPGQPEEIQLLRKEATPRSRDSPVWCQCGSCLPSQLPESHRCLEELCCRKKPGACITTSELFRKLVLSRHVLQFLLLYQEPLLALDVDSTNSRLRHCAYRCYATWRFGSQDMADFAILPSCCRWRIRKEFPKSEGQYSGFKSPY", "experiment": "Western blotting of macrophage signaling, P2X7", "format": "cell-based", "conditions": "low concentration", "text": "as §1"}, "hMSCs": {"system": "hMSCs", "experiment": "Western blotting of osteogenic differentiation via adenosine-A2B receptor signaling", "format": "cell-based"}}, "note": "Structures can show the parent of a compound that is named as a salt."}
{"smiles": "[Cl][Fe][Cl]", "note": "[FeCl2, Iron(II) chloride]", "values": [{"measurement": "Arg-1 (M2 polarization marker) expression", "setting": "macrophages", "result": "not expressed"}]}
{"smiles": "Nc1ncnc2c1ncn2[C@@H]1O[C@H](CO)[C@@H](O)[C@H]1O", "note": "[Adenosine]", "values": [{"measurement": "Osteogenic differentiation of stem cells", "setting": "stem cells", "result": "induced the osteogenic differentiation to a similar level thereto"}]}
{"smiles": "COc1cccc2c1C(=O)c1c(O)c3c(c(O)c1C2=O)C[C@@](O)(C(=O)CO)C[C@@H]3O[C@H]1C[C@H](N)[C@H](O)[C@H](C)O1", "note": "[Doxorubicin (DOX), Doxorubicin hydrochloride]", "values": [{"measurement": "ROS production in vivo (L-012 signal)", "setting": "ROS", "result": "has little effect on the ROS release in a short period of time"}]}
{"smiles": "Nc1ncnc2c1ncn2[C@@H]1O[C@H](COP(=O)([O-])OP(=O)([O-])OP(=O)(O)O)[C@@H](O)[C@H]1O.[Na+].[Na+]", "note": "[ATP, Adenosine 5′-triphosphate disodium salt]", "values": [{"measurement": "Arg-1 (M2 polarization marker) expression", "setting": "macrophages", "result": "strongly expressed"}, {"measurement": "P2Y1 signaling", "setting": "P2Y1", "result": "stimulated P2Y1 signaling"}, {"measurement": "P2X7 signaling", "setting": "P2X7", "result": "inhibited P2X7 signaling"}]}
{"smiles": "CCCn1c(=O)[nH]c2nc(-c3ccc(S(=O)(=O)N4CCN(c5ccc(Cl)cc5)CC4)cc3)[nH]c2c1=O", "note": "[PSB 603]", "values": [{"measurement": "Osteogenic differentiation of hMSCs", "setting": "hMSCs", "result": "osteogenic differentiation of hMSCs was inhibited"}]}
